These results are taken from paper PMC7070709, “Design, Synthesis, and In Vitro Evaluation of Hydroxybenzimidazole-Donepezil Analogues as Multitarget-Directed Ligands for the Treatment of Alzheimer’s Disease” (Molecules, 2020).

The conditions of series [1]: cited from earlier work.
Series [2] in a line: Cu(II) chelation by potentiometry. Format: physicochemical. The following applies: for pH at which metal complexation starts, Cu(II): formation of MHL species, CL = 6.7 × 10^−4 M, 1:2 M(II)/L; for pCu (pM = −log[M]): pH 7.4, CL/CM = 10, CM = 10^−6 M; for Kd: pH 7.4, read-out: conditional dissociation constant (K´d) for the copper complex. An excerpt: (§1) The metal chelating ability of hybrids 7 and 12, due to the BIM bidentate unity with (N,O) coordination mode, was studied by potentiometry. Figure 3A,B show a change in the deprotonation profile of the ligand titration curves due to the presence of the metal ions. In fact, the curves for the Cu(II)/L systems lie well below that of the ligand, while for the Zn(II)/L systems stay under for a > −1 (compound 7) or a > 0 (compound 12), thus supporting the formation of 1:1 and 1:2 M/L ratio complexes with the deprotonated and mono-protonated forms of the ligand and with relative metal dependent stability order (Cu > Zn). Table 1 contains the equilibrium models obtained from the fitting analysis of the potentiometric curves by program Hyperquad. In these equilibrium models, which the coordination core of the compounds integrates the bidentate (N,O) BIM moiety, MHL and MH2L2 correspond to species with the ligand containing one protonated nitrogen atom at the piperazine moiety, ML and ML2 correspond to complexes involving the completely deprotonated form of the ligand while MH-1L2 are mixed ligand-hydroxo metal complexes.
(§2) Solutions: the aqueous copper (CuCl2, 0.015 M) and zinc (ZnCl2, 0.0156 M) stock solutions for potentiometric equilibrium studies were prepared from 1000 ppm standards (Titrisol) and their metal content was evaluated by atomic absorption. The titrant solution (0.1 M KOH) was obtained from a carbonate-free commercial concentrate (Titrisol) and standardized by potentiometric titration with potassium hydrogen phthalate. The titrant solution was discarded whenever the percentage of carbonate (Gran’s method) was about 0.5% of the total amount of base.
(§3) Measurements: compounds 7 and 12 were titrated in 50% (w/w) DMSO/H2O medium, at T = 25.0 ± 0.1 °C and ionic strength (I) 0.1 M KCl, using 0.1 M KOH as titrant. Both glass and Ag/AgCl reference electrodes were previously conditioned in DMSO/H2O mixtures with increasing amounts of DMSO and the response of the glass electrode was controlled by strong acid–strong base (HCl/KOH) calibrations with the determination of the Nernst parameters by Gran’s method. […] All titrations were performed in duplicate and under the stated experimental conditions the pKw value (13.6) was determined and subsequently used in the computations. The stepwise protonation constant of the ligand, Ki = [HiL]/([Hi–1L][H]), and the overall metal–complex stability constants, βMmHhLl = [MmHhLl]/([M]^m[H]^h[L]^l), were calculated by fitting the potentiometric titration data with Hyperquad 2008 [26]. The metal hydrolysis constants were determined under the defined experimental conditions (I = 0.1 M KCl, 50% w/w DMSO/H2O, T = 25.0 ± 0.1 °C) and the following values of stability constants were included in the fitting of experimental data towards the equilibrium models related to the Cu^2+/L and Zn^2+/L systems: log βCu2H−2 = −9.99; log βZnH−2 = −14.79, log βZnH−3 = −23.48. Species distribution curves were plotted with the Hyss program.

A short description of series [3]: Zn(II) chelation by potentiometry. It is filed as physicochemical. The conditions noted are these: for pH at which metal complexation starts, Zn(II): formation of MHL species, CL = 6.7 × 10^−4 M, 1:2 M(II)/L; for pZn (pM = −log[M]): pH 7.4, CL/CM = 10, CM = 10^−6 M.
From the text: as §1, §2, §3

Series [4] addresses Aβ1–42 with Cu(II) (Homo sapiens, UniProt P05067). The experiment in a line: Inhibition of Cu-induced Aβ1–42 aggregation (thioflavin T fluorescence). The following applies: copper 40 µM, Aβ1–42 40 μM, 24 h, 37 °C; for inhibition at 40 µM: inhibitor 40 µM. Format: biochemical. On the procedure: (§4) The anti-amyloidogenic capacity of the compounds was also evaluated in vitro, in the absence and presence of Cu(II), based on the measurement of the fluorescence emission of Thioflavin T (ThT), a stain known by its Aβ fibril binding capacity. This binding interaction can be analyzed by fluorimetry, since the presence of ThT-fibrils increases the absorbance and the emission of the ThT dye, and it also induces red shifts on the absorbance (from 385 to 446 nm) and emission peaks (from 445 to 485 nm). All the measurements were performed after incubation (24 h, 37 °C) of the self-mediated and Cu^2+-induced Aβ aggregates in the presence/absence of the compounds under evaluation.
(§5) Herein, due to solubility problems of some compounds in the phosphate buffer (0.215 M, pH 8.0) of the working medium, the assays were carried out in the presence of 40 μM concentration of inhibitor and 20 μM in the case of compound 4, instead of 80 μM as previously reported. […] The activity dependence on ligand structural features may be mainly explained by the different ability for intercalation into the fibrils, as already assumed for other inhibitors. […] The data obtained for compounds 6 and 7 indicate that the presence of R1 = F, -NO2 substituents in the BIM have some small positive effect on the inhibition of Aβ aggregation.
(§6) The Aβ peptide was treated with 1,1,1,3,3,3-hexafluoropropan-2-ol (HFIP) and dissolved in a CH3CN/Na2CO3 (300 μM)/NaOH (250 μM) (48.3:48.3:4.3, v/v/v) mixture in order to have a stable stock solution, avoiding self-aggregation of Aβ1–42. Then, the prepared 500 μM solution was diluted at 40 μM in phosphate buffer (0.215 M, pH 8.0).
(§7) The solutions of the tested compounds were prepared in MeOH (1 mg/mL), being further diluted in phosphate buffer to a concentration of 480 μM. For copper-induced aggregation studies, a solution of CuCl2 240 μM was prepared from a stock standard solution (0.015 M). To perform the assays for the Aβ1–42 aggregation inhibition, a reported method, based on the fluorescence emission of thioflavin T (ThT), was followed. Aβ1–42 (40 μM) was incubated at 37 °C, for 24 h with or without Cu(II) (40 μM) in a phosphate buffer in presence or absence of the single ligand (40 μM and 20 μM for compound 4). Then, the samples were added to a 96-well plate with […] of 5 μM ThT in 50 mM glycine-NaOH (pH 8.5) buffer. Blank samples were prepared without the peptide for each concentration. The ThT fluorescence was measured at 446 nm (excitation) and 485 nm (emission). The inhibition percentage of aggregation was calculated by Equation (2), in which IFi and IF0 corresponded to the fluorescence intensities, in the presence and in the absence of the tested compound, subtracted of the fluorescence intensities due to the respective blanks.
(§8) The reported values were obtained as the mean ± SEM of duplicate of three different experiments.

Series [5] addresses T1, AChE (type VI-S, from electric eel) (Electrophorus electricus, UniProt O42275).
T1 construct: purchased type VI-S
The experiment in a line: AChE inhibition, adaptation of Ellman's method. It is filed as biochemical. The conditions noted are these: means of three independent experiments ± SD, read-out: TcAChE Inhibition IC50. On the procedure:
The inhibition of AChE by the DNP-BIM hybrids herein studied was assayed by using a variation of Ellman´s test and the IC50 values obtained are included in Table 2. […]. An adaptation of the Ellman´s method, previously described, was used to measure the acetylcholinesterase inhibitory activity. The assay solution contained 374 µL of 4-(2-hydroxyethyl)-1-piperazineethanesulfonic acid (HEPES) buffer (50 mM, pH 8.0), 476 µL of 5,5’-dithiobis-(2-nitrobenzoic acid) (DTNB, 3 mM), a variable volume (10–50 µL) of the stock solution of each compound in methanol (1 mg/mL), 25 µL of AChE (type VI-S, from electric eel) stock solution, and the necessary amount of methanol to obtain 0.925 mL of sample mixture in a 1 mL cuvette. The samples were incubated for 15 min and then 75 µL of acetylthiocholine iodide (AChI) solution (16 mM) was added. The reaction was monitored for 5 min at 405 nm. Assays were run with a blank containing all the components except AChE, which was replaced by HEPES buffer. The rates of the reaction were calculated as well as the enzyme activity. A control reaction was carried out using methanol as a sample solution and it was considered as 100% activity.
The inhibition curves were obtained by plotting the percentage of enzymatic inhibition versus inhibitor concentration and a calibration curve was got from which the linear regression parameters were obtained.
For orientation: DTNB colorimetry detects thiols as they appear.

Series [6] addresses Aβ1–42 (Homo sapiens, UniProt P05067). The experiment in a line: Inhibition of self-mediated Aβ1–42 aggregation (thioflavin T fluorescence). Format: biochemical. The conditions noted are these: Aβ1–42 40 μM, 24 h, 37 °C, read-out: Aβ1–42 Aggregation Inhibition, Self-Induced; for inhibition at 40 µM: inhibitor 40 µM. On the procedure: as §4, §5, §6, §7, §8
Where [7] appears, read: global formation constant, 50% w/w DMSO/water, I = 0.1 M KCl, 25.0 °C.

Where two headings read alike, the source gives them in different places. Some results are limits rather than exact numbers.

T1 sequence (O42275 24-633): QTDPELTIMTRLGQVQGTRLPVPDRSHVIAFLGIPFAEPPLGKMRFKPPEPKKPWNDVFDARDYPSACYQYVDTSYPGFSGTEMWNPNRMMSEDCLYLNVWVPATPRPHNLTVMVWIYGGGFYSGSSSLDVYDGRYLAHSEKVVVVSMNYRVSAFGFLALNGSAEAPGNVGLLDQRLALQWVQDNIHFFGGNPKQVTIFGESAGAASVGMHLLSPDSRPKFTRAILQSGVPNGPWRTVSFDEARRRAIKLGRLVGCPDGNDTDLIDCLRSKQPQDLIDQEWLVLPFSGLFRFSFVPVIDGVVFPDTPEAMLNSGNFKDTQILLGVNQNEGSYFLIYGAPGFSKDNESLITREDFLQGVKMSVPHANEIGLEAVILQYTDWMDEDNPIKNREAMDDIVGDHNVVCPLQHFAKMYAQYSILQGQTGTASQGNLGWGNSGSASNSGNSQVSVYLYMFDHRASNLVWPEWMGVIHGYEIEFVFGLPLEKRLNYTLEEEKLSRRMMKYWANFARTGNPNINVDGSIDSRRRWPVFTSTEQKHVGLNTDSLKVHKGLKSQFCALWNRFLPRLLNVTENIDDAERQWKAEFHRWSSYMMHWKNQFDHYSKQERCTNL
Aβ1–42 with Cu(II), sequence (P05067 672-713): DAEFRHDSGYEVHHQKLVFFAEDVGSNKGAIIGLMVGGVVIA
Aβ1–42, sequence (P05067 672-713): as above

Take `c1ccncc1` [pyridine]: the “log K (protonation constant)” value in series [1] (in water) is given as 5.24.
As usually defined, the inhibition is the percentage by which the read-out fell short of the control. As usually defined, the IC50 is the concentration that inhibits the measured activity by half. As to `O=C(NCCN1CCN(Cc2ccccn2)CC1)c1ccc2nc(-c3ccccc3O)[nH]c2c1` [Compound 12, 2-(2-Hydroxyphenyl)-N-(2-(4-(pyridin-2-ylmethyl)piperazin-1-yl)ethyl)-1H-benzo[d]imidazole-6-carboxamide], in series [2], the “pH at which metal complexation starts, Cu(II)” value is given as “around 2”; the “pCu (pM = −log[M])” value turned out to be 10.4; the Kd worked out at 0.000365 µM. In addition, in series [2] (setting [7]), the “log βCumHhLl (1–12), CuH-1L2” value is given as 7.88(7); the “log βCumHhLl (101), CuL” value was 11.18(5); the “log βCumHhLl (102), CuL2” value is given as 17.14(7); the “log βCumHhLl (111), CuHL” value is reported as 16.26(3). In addition, in series [3], the “pH at which metal complexation starts, Zn(II)” value is on record as 3.5–4 and the “pZn (pM = −log[M])” value worked out at 6.3. In series [3] (setting [7]), the “log βZnmHhLl (1–12), ZnH-1L2” value is given as 2.07(7); the “log βZnmHhLl (101), ZnL” value was 6.26(5); the “log βZnmHhLl (102), ZnL2” value is 10.54(5); the “log βZnmHhLl (111), ZnHL” value is recorded as 12.58(4). Testing at 40 µM in series [4] gave an inhibition of 44.4%. The IC50 in series [5] is > 100 µM. For the same compound, the inhibition at 40 µM in series [6] is 30.1%.
Take `O=C(NCC1CCCCN1Cc1ccccc1)c1ccc2nc(-c3ccccc3O)[nH]c2c1` (stereo not drawn) [Compound 4, N-((1-Benzylpiperidin-2-yl)methyl)-2-(2-hydroxyphenyl)-1H-benzo[d]imidazole-6-carboxamide]: the inhibition at 20 µM turned out to be 55.9% in series [4] (inhibitor 20 µM) and 47.6% in series [6] (inhibitor 20 µM). In series [5], the IC50 is 14 ± 1 µM.
For the compound `O=C(NCC1CCCN(Cc2ccccc2)C1)c1ccc2nc(-c3ccccc3O)[nH]c2c1` (stereo not drawn) [Compound 3, N-((1-Benzylpiperidin-3-yl)methyl)-2-(2-hydroxyphenyl)-1H-benzo[d]imidazole-6-carboxamide], the inhibition at 40 µM was found to be 81.8% in series [4] and 71.4% in series [6]. Moreover, the half-maximal inhibitory concentration (IC50) in series [5] was found to be 5 ± 0.5 µM.
Take `O=C(NCC1CCN(Cc2ccccc2)CC1)c1ccc2[nH]c(-c3cc(F)ccc3O)nc2c1` [Compound 6, N-((1-Benzylpiperidin-4-yl)methyl)-2-(2-hydroxy-5-fluorophenyl)-1H-benzo[d]imidazole-5-carboxamide]: the figures for the inhibition at 40 µM in series [4] and in series [6] were 61% and 51.2%, respectively. In addition, the half-inhibitory concentration (IC50) in series [5] worked out at 1.67 ± 0.05 µM.
With `c1c[nH]cn1` [imidazole], the “log K (protonation constant)” value in series [1] (standard group) is on record as 6.95.
As to `O=C(NCCN1CCN(Cc2ccccc2)CC1)c1ccc2[nH]c(-c3cc(F)ccc3O)nc2c1` [Compound 8, N-(2-(4-Benzylpiperazin-1-yl)ethyl)-2-(2-hydroxy-5-fluorophenyl)-1H-benzo[d]imidazole-5-carboxamide], the results for the inhibition at 40 µM in series [4] and in series [6] were 55.2% and 50.6%, respectively. Further, the IC50 in series [5] amounted to 4.3 ± 0.3 µM.
As to `O=C(NCCN1CCN(Cc2ccccc2)CC1)c1ccc2[nH]c(-c3cc([N+](=O)[O-])ccc3O)nc2c1` [Compound 7, N-(2-(4-Benzylpiperazin-1-yl)ethyl)-2-(2-hydroxy-5-nitrophenyl)-1H-benzo[d]imidazole-5-carboxamide], in series [2], the “pH at which metal complexation starts, Cu(II)” value is reported as “around 2”; the “pCu (pM = −log[M])” value is 10.9; the Kd amounted to 0.08 µM. For the same compound, in series [2] (setting [7]), the “log βCumHhLl (1–12), CuH-1L2” value is on record as 7.30(9); the “log βCumHhLl (102), CuL2” value is reported as 15.27(8); the “log βCumHhLl (111), CuHL” value is recorded as 14.23(5); the “log βCumHhLl (122), CuH2L2” value was 26.90(7). For the same compound, in series [3], the “pH at which metal complexation starts, Zn(II)” value is on record as 3.5–4 and the “pZn (pM = −log[M])” value is recorded as 6.5. In addition, in series [3] (setting [7]), the “log βZnmHhLl (101), ZnL” value is recorded as 4.98(8); the “log βZnmHhLl (102), ZnL2” value is listed as 10.22(8); the “log βZnmHhLl (111), ZnHL” value is reported as 10.40(8); the “log βZnmHhLl (122), ZnH2L2” value is 21.92(7). For the same compound, in series [4], 40 µM produced 71.4% inhibition. Further, in series [5], the IC50 is 21 ± 3 µM. The inhibition at 40 µM in series [6] was 57.6%.
On to `Oc1ccccc1` [phenol], for which the “log K (protonation constant)” value in series [1] (standard group) is reported as 9.98.
In the case of `O=[N+]([O-])c1ccc(O)cc1` [4-nitrophenol], the “log K (protonation constant)” value in series [1] (standard group) is listed as 7.15.
As to `O=C(NCCN1CCN(Cc2ccccc2[N+](=O)[O-])CC1)c1ccc2nc(-c3ccccc3O)[nH]c2c1` [Compound 11, 2-(2-Hydroxyphenyl)-N-(2-(4-(2-nitrobenzyl)piperazin-1-yl)ethyl)-1H-benzo[d]imidazole-6-carboxamide], the results for the inhibition at 40 µM in series [4] and in series [6] were 43.5% and 22.7%, respectively. Further, the half-inhibitory concentration (IC50) in series [5] came to 20 ± 1 µM.
